Substitutions are numbered along the chain they refer to.
Assays:
HCN1 mutant D140A = molecular target: T1, HCN1 mutant D140A (Homo sapiens, UniProt O60741, D140A); test: Whole-cell patch-clamp, Ih inhibition, HCN1 mutant; assay type: cell-based
T1 construct: Full-length WT or mutant human HCN1 were cloned into the pcDNA3.1 vector; expressed in transfected cells; host or cells: HeLa cells, pcDNA3.1 vector, transient lipofection
T1 sequence (O60741 1-890 D140A): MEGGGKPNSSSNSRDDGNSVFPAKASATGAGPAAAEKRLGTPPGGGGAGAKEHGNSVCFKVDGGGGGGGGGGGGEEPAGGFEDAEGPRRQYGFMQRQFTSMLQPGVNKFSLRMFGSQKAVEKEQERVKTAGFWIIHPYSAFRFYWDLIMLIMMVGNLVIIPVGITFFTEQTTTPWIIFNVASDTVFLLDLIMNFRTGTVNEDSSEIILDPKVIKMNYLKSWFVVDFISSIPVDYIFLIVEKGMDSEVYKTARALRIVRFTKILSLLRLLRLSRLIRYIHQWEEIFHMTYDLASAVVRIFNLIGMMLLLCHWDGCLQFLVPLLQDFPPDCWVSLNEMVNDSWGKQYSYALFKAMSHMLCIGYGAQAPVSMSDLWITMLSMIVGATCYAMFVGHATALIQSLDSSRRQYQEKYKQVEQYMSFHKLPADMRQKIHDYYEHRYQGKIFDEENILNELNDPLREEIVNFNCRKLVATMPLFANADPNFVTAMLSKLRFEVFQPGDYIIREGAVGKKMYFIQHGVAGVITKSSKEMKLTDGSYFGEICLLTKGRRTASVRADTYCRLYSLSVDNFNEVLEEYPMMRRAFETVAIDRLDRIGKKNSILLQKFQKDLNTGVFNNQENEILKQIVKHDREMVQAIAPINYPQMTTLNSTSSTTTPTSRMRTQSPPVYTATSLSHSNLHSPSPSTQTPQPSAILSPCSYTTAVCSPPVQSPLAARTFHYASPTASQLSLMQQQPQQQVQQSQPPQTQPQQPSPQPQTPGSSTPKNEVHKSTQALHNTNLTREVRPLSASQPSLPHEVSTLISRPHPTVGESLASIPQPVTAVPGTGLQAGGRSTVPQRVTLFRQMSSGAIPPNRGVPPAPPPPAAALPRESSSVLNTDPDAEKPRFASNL
Method: (§1) To elucidate the contribution of these residues to the inhibitory effect of ivabradine, we introduced mutations in ivabradine-interacting residues, converting them into alanines (Fig. 2F).
(§2) Full-length WT or mutant human HCN1 were cloned into the pcDNA3.1 vector for electrophysiological experiments. HeLa cells (from Thermo Fisher Scientific) cultured in Dulbecco's modified Eagle's medium (from Solarbio Life Science) + 10% fetal bovine serum (from ExCell Bio) at 37 °C were transiently transfected using lipofection, and whole-cell patch-clamp recordings were obtained using the Axon 200B amplifier (Molecular Devices) and clampex software (https://www.moleculardevices.com/products/axon-patch-clamp-system/acquisition-and-analysis-software/pclamp-software-suite), 36 to 48 h posttransfection. The extracellular solution contained 110 mM NaCl, 0.5 mM MgCl2, 1.8 mM CaCl2, 5 mM Hepes, 30 mM KCl, and pH was adjusted to 7.4 with NaOH, while the pipette solution contained 130 mM KCl, 10 mM NaCl, 0.5 mM MgCl2, 1 mM EGTA, 5 mM Hepes, and pH was adjusted to 7.4 with KOH. The recordings were performed at room temperature, voltage-clamp mode, and filtered at 1 kHz. The sampling frequency was 10 kHz, and the series resistance was limited to 5 MΩ. To elicit channel currents, step pulses of 3 s duration ranging from −180 mV to −30 mV were applied, followed by a step to −180 mV lasting 1.25 s. The tail currents evoked by the second step were used to determine the voltage-dependent activation curves and calculate the midpoint of activation potential (V1/2). The half maximal inhibitory concentration (IC50) of drugs was determined by recording currents at a pulse of −140 mV and analyzing current amplitudes at varying drug concentrations. The IC50 value was calculated using the Hill equation.

HCN1 mutant F285A = molecular target: T2, HCN1 mutant F285A (Homo sapiens, UniProt O60741, F285A); test: Whole-cell patch-clamp, Ih inhibition, HCN1 mutant; assay type: cell-based; details: electrophysiological recordings, read-out: IC50 (Fig. 2F)
T2 construct: Full-length WT or mutant human HCN1 were cloned into the pcDNA3.1 vector; expressed in transfected cells; host or cells: HeLa cells, pcDNA3.1 vector, transient lipofection
T2 sequence (O60741 1-890 F285A): T1 sequence (O60741 1-890 D140A) with A140D, F285A
Method: as §1, §2

IC50 (HCN1 mutant D140A; D140A mutant, electrophysiological recordings, read-out: IC50 (Fig. 2F)): 27.6 µM
change in potency by mutation (HCN1 mutant D140A; D140A versus WT): dramatic decrease
IC50 (HCN1 mutant F285A): 13.4 µM
SMILES: COc1cc2c(cc1OC)CC(=O)N(CCCN(C)C[C@H]1Cc3cc(OC)c(OC)cc31)CC2 [ivabradine]

Source: PMC11530593, “Structural mechanism of human HCN1 hyperpolarization-activated channel inhibition by ivabradine” (The Journal of Biological Chemistry, 2024)
